The record followed here is PMC7278553, “Blocking interaction between SHP2 and PD‐1 denotes a novel opportunity for developing PD‐1 inhibitors” (EMBO Molecular Medicine, 2020).

The experiment deals with T1, SHP2 (Homo sapiens, UniProt Q06124).
T1 construct: gene PTPN11; recombinant hSHP2-FC (R&D Systems, 1894-SH-100)
T1 sequence (Q06124 2-593): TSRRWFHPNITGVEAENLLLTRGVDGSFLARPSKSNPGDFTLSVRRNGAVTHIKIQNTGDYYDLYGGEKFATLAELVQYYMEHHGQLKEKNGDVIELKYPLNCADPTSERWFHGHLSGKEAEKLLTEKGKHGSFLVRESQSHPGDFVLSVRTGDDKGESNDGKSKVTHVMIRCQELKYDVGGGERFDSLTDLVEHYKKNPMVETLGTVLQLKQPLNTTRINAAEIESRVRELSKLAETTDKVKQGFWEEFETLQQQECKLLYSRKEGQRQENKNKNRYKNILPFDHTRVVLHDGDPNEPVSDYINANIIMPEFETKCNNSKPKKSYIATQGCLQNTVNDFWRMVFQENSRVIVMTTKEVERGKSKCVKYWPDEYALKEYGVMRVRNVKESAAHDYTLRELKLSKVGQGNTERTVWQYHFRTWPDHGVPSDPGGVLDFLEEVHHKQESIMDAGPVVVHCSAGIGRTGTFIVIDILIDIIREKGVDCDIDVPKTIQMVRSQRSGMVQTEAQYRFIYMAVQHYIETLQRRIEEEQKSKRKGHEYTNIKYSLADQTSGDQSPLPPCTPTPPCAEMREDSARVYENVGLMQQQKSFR
T1 sequence (Q15116 235-264 partner): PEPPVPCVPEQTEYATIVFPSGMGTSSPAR
Nature of the experiment: ELISA: MB blocks binding of purified recombinant SHP2-Fc to coated phospho-ITSM PD-1 peptide; supported by co-IP and split-luciferase complementation in cells. In kind it is biochemical.

`CN(C)c1ccc2nc3ccc(N(C)C)cc3[s+]c2c1` [MB, 3,7‐bis(dimethylamino)‐5‐phenothiazinium chloride]: the “ELISA: MB blocks binding of purified recombinant SHP2-Fc to coated phospho-ITSM” value is on record as “MB dose‐dependently blocked the binding of SHP2 protein to coated Pep‐ITSM‐p248Y, unequivocally showing that MB directly blocked interaction”.
